Source: US20090221624A1, “4-AMINOQUINOLINE COMPOUNDS FOR TREATING VIRUS-RELATED CONDITIONS” (priority 2005, published 2009)
Like-named read-outs stand apart in the source and are kept apart here.

Assays:
EBOV minigenome = assay: microbe, parasite or virus in culture; type: cell-based, Ebola virus; conditions: for inhibition at 25 µM / EC50: Zaire ebolavirus; for inhibition at 25 µM: 24 h, read-out: EBOV Inh; for EC50: read-out: EBOV EC50
YFV (YF-hRuPac cells) = assay: microbe, parasite or virus in culture; type: cell-based, yellow fever virus; conditions: for inhibition at 25 µM: 24 h, read-out: YFV Inh
WNV (WN-hRuPac cells) = assay: WNV antiviral activity, WN-hRuPac cells, Renilla luciferase; type: cell-based, West Nile virus; conditions: for inhibition at 25 µM: primary screening, 25 μM final concentration, 24 hours, percent inhibition of viral replication, read-out: WNV Inh
SINV (SR19-F-luc cells) = assay: SINV antiviral activity, SR19-F-luc cells, Firefly luciferase; type: cell-based; conditions: Sindbis virus; for inhibition at 25 µM: primary screening, 25 μM final concentration, 24 hours, percent inhibition of viral replication, read-out: SINV Inh
[1] = system: HCV replicon (Clone A cells, Huh7, subgenomic hepatits C virus RNA); assay: HCV Neo screening assay (HCV replicon, NPTII ELISA); type: cell-based, hepatitis C virus; conditions: Hepatitis C virus, Huh-7; primary screening, 25 μM final concentration, 24 hours; percent inhibition of viral replication; read-out: HCV Inh
RSV minigenome = assay: RSV minigenome-dependent β-galactosidase expression assay (RSV β-Gal); type: cell-based, respiratory syncytial virus; conditions: for EC50: Secondary Data, RSV, read-out: RSV EC50; for inhibition at 25 µM: primary screening, 25 μM final concentration, 24 hours, percent inhibition of viral replication, read-out: RSV Inh; for RSV TI: therapeutic index CC50/EC50, RSV
DNG (D2-hRuPac cells) = assay: DNG antiviral activity, D2-hRuPac cells, Renilla luciferase; type: cell-based, Dengue fever virus; conditions: Dengue virus, secondary screening
[2] = human respiratory syncytial virus

SMILES | inhibition at 25 µM (EBOV minigenome) | EC50 (EBOV minigenome) | inhibition at 25 µM (YFV (YF-hRuPac cells); Yellow fever virus) | inhibition at 25 µM (WNV (WN-hRuPac cells); West Nile virus) | CC50 (in vitro; DNG CC50) | CC50 (in vitro; EBOV CC50) | CC50 (in vitro; RSV CC50) | CC50 (in vitro; SINV CC50) | CC50 (in vitro; WNV CC50) | CC50 (in vitro; YFV CC50) | inhibition at 25 µM (SINV (SR19-F-luc cells)) | inhibition at 25 µM [1] | EC50 (RSV minigenome; [2]) | inhibition at 25 µM (RSV minigenome; [2]) | RSV TI (RSV minigenome) | CC50 (in vitro; HCV CC50) | other results
CCOC(=O)c1cnc2c(OC)cccc2c1NCc1ccccc1 [Compound 62] | 97.4% | 75 µM | 76.6% | 67.7% | 43.5 µM | 43.5 µM | 43.5 µM | 43.5 µM | 43.5 µM | 43.5 µM | 81.3% | -5.83% | 3.73 µM | 99% | 11.66 | – | –
CCOC(=O)c1cnc2c(OC)cccc2c1NCc1ccco1 [Compound 67] | 86.6% | 20.1 µM | 70.7% | 33.5% | 29.9 µM | 29.9 µM | 29.9 µM | 29.9 µM | 29.9 µM | 29.9 µM | 68% | 5.39% | 1.2 µM | 98.3% | 24.88 | – | –
CCOC(=O)c1cnc2c(OC)cccc2c1NCc1cccnc1 [Compound 68] | 74.5% | 68.7 µM | 71.8% | 49.7% | 51 µM | 51 µM | 51 µM | 51 µM | 51 µM | 51 µM | 72.8% | 44.7% | 3 µM | 98.9% | 17 | – | –
CCOC(=O)c1cnc2c(OC)cccc2c1NCCCO [Compound 70] | 74.7% | 69.7 µM | 62.6% | 14.6% | 45.8 µM | 45.8 µM | 45.8 µM | 45.8 µM | 45.8 µM | 45.8 µM | 64.5% | 55.6% | 3.02 µM | 95.8% | 15.15 | ≥ 75 µM | –
COc1ccccc1Nc1cc(C)nc2c(C)c(C)cc(N)c12 [Compound 77] | – | 75 µM | – | – | 52.6 µM | 52.6 µM | 52.6 µM | 52.6 µM | 52.6 µM | 52.6 µM | – | – | – | – | 11.07 | – | EBOV Inh (EBOV minigenome): 94.37%; EC50 (RSV minigenome): 4.75 µM
Cc1cc(NNC(=O)OCc2ccccc2)c2ccccc2n1 [Compound 78] | 42.3% | 75 µM | – | – | 51.1 µM | 51.1 µM | 51.1 µM | 51.1 µM | 51.1 µM | 51.1 µM | – | – | 1.38 µM | – | 37.03 | ≥ 75 µM | YFV TI (YFV (YF-hRuPac cells)): 2.95; EC50 (YFV (YF-hRuPac cells); Yellow fever virus, read-out: YFV EC50): 17.3 µM; EC50 (DNG (D2-hRuPac cells)): 57 µM; EC50 (WNV (WN-hRuPac cells); West Nile virus, Secondary Data, WNV, read-out: WNV EC50): ≥ 75 µM; WNV TI (WNV (WN-hRuPac cells); therapeutic index CC50/EC50, WNV): 0.68; EC50 (SINV (SR19-F-luc cells); secondary screening, SR19-F-luc cells): 7.54 µM
